Key:
[1] = Metabolism rate, pmol/min/mg at 1 μM, human; type: in vitro ADME; settings: 1 μM compound
mouse GnRH receptor = biological target: T1, mouse GnRH receptor (Mus musculus, UniProt Q01776); experiment: Radioligand binding, 125I-GnRH-A, 293 cells expressing mouse GnRH receptors; settings: read-out: mGnRH IC50
T1 construct: expressed in transfected cells; host or cells: 293 cells
T1 sequence (Q01776 1-327): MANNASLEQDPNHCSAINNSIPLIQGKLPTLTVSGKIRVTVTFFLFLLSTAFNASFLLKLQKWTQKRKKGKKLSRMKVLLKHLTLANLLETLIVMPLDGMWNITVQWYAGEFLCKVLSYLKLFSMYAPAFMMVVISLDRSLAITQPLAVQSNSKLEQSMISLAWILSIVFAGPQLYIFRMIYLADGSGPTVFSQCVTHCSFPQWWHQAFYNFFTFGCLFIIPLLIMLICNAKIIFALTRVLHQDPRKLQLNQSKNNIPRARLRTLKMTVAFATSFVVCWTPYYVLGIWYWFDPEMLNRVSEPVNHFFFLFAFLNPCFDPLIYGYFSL
Procedure, shortened: (§1)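 Bound label captured on 0.1% polyethyleneimine-treated GF/C filters, washed three times with PBS, counted. IC50 derived; identical set-up for every species.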

[2] = Metabolism rate, pmol/min/mg at 1 μM, rat male; type: in vitro ADME; settings: 1 μM compound
rat GnRH receptor = biological target: T2, rat GnRH receptor (Rattus norvegicus, UniProt P30969); experiment: Radioligand binding, 125I-GnRH-A, rat pituitary membranes; design: membranes were prepared from rat pituitary; from tissue; host or cells: rat pituitary; settings: read-out: rGnRH IC50
T2 sequence (P30969 1-327): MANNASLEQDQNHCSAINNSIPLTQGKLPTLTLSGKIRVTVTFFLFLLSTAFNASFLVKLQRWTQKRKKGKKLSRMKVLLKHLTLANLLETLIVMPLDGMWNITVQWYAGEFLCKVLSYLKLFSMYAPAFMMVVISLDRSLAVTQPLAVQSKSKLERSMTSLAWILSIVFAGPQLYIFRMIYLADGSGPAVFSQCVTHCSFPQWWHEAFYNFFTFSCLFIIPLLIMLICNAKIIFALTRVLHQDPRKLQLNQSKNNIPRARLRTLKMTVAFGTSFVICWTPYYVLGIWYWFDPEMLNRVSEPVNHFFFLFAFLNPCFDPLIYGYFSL
Procedure, shortened: as §1

human GnRH receptor = biological target: T3, human GnRH receptor (Homo sapiens, UniProt P30968); experiment: Radioligand binding, 125I-GnRH-A displacement, membranes of HEK 293 cells with human GnRH receptor; settings: read-out: hGnRH IC50
T3 construct: expressed in transfected cells; host or cells: HEK 293 (hGnRH-R/293, from Dr. Stuart Sealfon)
T3 sequence (P30968 1-328): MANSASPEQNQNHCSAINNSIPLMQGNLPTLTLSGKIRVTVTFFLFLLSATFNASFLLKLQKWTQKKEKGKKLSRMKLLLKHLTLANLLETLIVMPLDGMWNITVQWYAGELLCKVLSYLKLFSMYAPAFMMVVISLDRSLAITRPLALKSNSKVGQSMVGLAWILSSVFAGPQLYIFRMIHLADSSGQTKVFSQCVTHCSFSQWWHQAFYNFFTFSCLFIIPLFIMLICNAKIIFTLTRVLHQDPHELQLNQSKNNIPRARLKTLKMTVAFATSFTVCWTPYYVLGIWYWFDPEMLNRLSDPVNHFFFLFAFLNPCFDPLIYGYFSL
Procedure, shortened: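 After filtration and PBS washes, bound radioactivity was counted by scintillation and IC50 derived. Identical conditions applied for non-human receptors.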

[3] = test system: LH levels in castrated rats; experiment: Castrated male rat model, LH suppression; type: in vivo
From the text: Experimental Protocol: Male Sprague-Dawley (225-250 g) rats were castrated and allowed 10 days postoperative recovery. Ten days post castration animals were instrumented with indwelling femoral venous and arterial catheters to facilitate remote infusions and blood sampling. On the day of the experiment, animals were allowed to acclimate to the procedure room while residing in their home cage. Basal blood samples were drawn from all animals. Following basal sampling, either vehicle (10% DMSO, 10% cremophor/saline), Antide (1.0 μg) or compound 11 (10 mg/kg) was administered intravenously. Blood samples were drawn 10, 60, 90, 120, 180, 240 minutes after injections. Blood was centrifuged, serum collected and stored in −70° freezer until assayed. Serum samples were analyzed using DSL-4600 ACTIVE LH coated-tube immunoradiometric assay kit from Diagnostic Systems Laboratories, Inc.
Surgical removal of the gonads removes circulating testosterone and eliminates the negative feedback of testosterone on the hypothalamus. […] This model seems suitable for evaluating small molecule GnRH antagonists.
Male Sprague-Dawley ([…]) rats were castrated via the scrotal approach under halothane anesthesia. Animals were allowed 14 days post operative recovery prior to study. Thirteen days following castration, animals were anesthetized with halothane and instrumented with indwelling jugular vein cannula. Details of the cannulation procedure have been described previously {Harms and Ojeda, 1974)}. On study day, animals were allowed to acclimate to the procedure room while residing in their home cage. Basal blood samples were drawn from all animals. Immediately following basal sampling, vehicle or test compounds were administered by various routes. The routes of administration employed were intravenous (iv), intramuscular (im), intraperitoneal (ip), subcutaneous (sc) and oral (po). Blood samples were drawn into heparin containing tubes at multiple time points post treatment. Blood was centrifuged immediately, plasma collected and stored in −20° freezer until assayed. Plasma samples were analyzed using DSL-4600 ACTIVE LH coated-tube immunoradiometric assay kit from Diagnostic Systems Laboratories, Inc.
Formulation #1 (denoted with superscript 1): 10% DMSO, 10% Cremophor EL and 80% physiological saline.
Formulation #2 (denoted with superscript 2): 10% Cremophor EL and 90% physiological saline.

[4] = Pharmacokinetic studies / bioavailability in rats; type: in vivo, rat; settings: for Cmax / Tmax / half-life: rat, plasma; for Cmax / Tmax: po
[5] = female, 10 mg/kg, rat female, p.o. 10 mg/kg, 5 mg/ml solution in 10% DMSO 10% cremophor 80% saline
[6] = male, 20 mg/kg, rat male, p.o. 20 mg/kg, vehicle per footnote (DMSO/cremophor/saline)

Row | Structure (SMILES) | Human pmol/min/mg 1 μM [1] | IC50 (mouse GnRH receptor) | Rat male pmol/min/mg 1 μM [2] | IC50 (rat GnRH receptor) | IC50 (human GnRH receptor) | also measured
1 | COC(=O)[C@H]1CC[C@H](CNC(=O)c2ccc(Cc3cc4c(cc3C)C(C)(C)CCC4(C)C)o2)CC1 [Compound 68] | 2716 pmol/min/mg | 1010 nM | 8125 pmol/min/mg | 890 nM | 90 nM | 
2 | Cc1cc2c(cc1Cc1ccc(C(=O)NCC3CCC(CNc4nccc(NCC5CCCO5)n4)CC3)o1)C(C)(C)CCC2(C)C (stereo not shown) [Compound 92] | 241 pmol/min/mg | 42 nM | 1282 pmol/min/mg | 27 nM | 80 nM | 
3 | Cc1cc2c(cc1Cc1ccc(C(=O)NCc3cccc4ccccc34)o1)C(C)(C)CCC2(C)C [Compound 95] | 283 pmol/min/mg | 21 nM | 3356 pmol/min/mg | 60 nM | 31 nM | 
4 | Cc1cc2c(cc1Cc1ccc(C(=O)Nc3ccc4[nH]ccc4c3)o1)C(C)(C)CCC2(C)C [Compound 96] | 182 pmol/min/mg | 130 nM | 1692 pmol/min/mg | 90 nM | 40 nM | 
5 | COc1ccc(NC(=O)c2ccc(Cc3cc4c(cc3C)C(C)(C)CCC4(C)C)o2)c(OC)c1 [Compound 99] | 353 pmol/min/mg | 105 nM | 2549 pmol/min/mg | 108 nM | 56 nM | 
6 | Cc1cc2c(cc1Cc1ccc(C(=O)Nc3ccc4[nH]ncc4c3)o1)C(C)(C)CCC2(C)C [Compound 109] | 130 pmol/min/mg | 140 nM | 1055 pmol/min/mg | 140 nM | 75 nM | 
7 | Cc1cc2c(cc1Cc1ccc(C(=O)Nc3cccc(B(O)O)c3)o1)C(C)(C)CCC2(C)C [Compound 119] |  |  |  | 1300 nM |  | % Max LH Suppression ([3]; 5.0 mg/kg iv): 63%; time of % Max LH Suppression ([3]; 5.0 mg/kg iv): 1 h; ≧50% Suppression Duration ([3]; 5.0 mg/kg iv): 1 h; % Max LH Suppression ([3]; 10 mg/kg iv): 61%; time of % Max LH Suppression ([3]; 10 mg/kg iv): 1 h; ≧50% Suppression Duration ([3]; 10 mg/kg iv): 1 h; % Max LH Suppression ([3]; 20 mg/kg ip): 79%; time of % Max LH Suppression ([3]; 20 mg/kg ip): 2 h; ≧50% Suppression Duration ([3]; 20 mg/kg ip): 2 h; % Max LH Suppression ([3]; 20 mg/kg po): 63%; Range of Plasma Conc. ([3]; 20 mg/kg po): 0.1 µM; time of % Max LH Suppression ([3]; 20 mg/kg po): 2 h; ≧50% Suppression Duration ([3]; 20 mg/kg po): 2 h; Range of Plasma Conc. ([3]; 20 mg/kg sc): 0.2 µM
8 | COc1cccc(OC)c1NC(=O)c1ccc(Cc2c(C)cc(C)cc2C)o1 [Compound 126] | 544 pmol/min/mg | 684 nM |  | 325 nM | 128 nM | Cmax [4, 5]: 20 nM; Tmax [4, 5]: 0.5 h; half-life ([4]; female, rat female): 1.9 h; Fp.o. ([4]; rat female, 5 mg/ml solution in 10% DMSO 10% cremophor 80% saline): 2% (10 mg/kg)^10

Continued, in another order:

Row | Human pmol/min/mg 1 μM [1] | IC50 (mouse GnRH receptor) | Rat male pmol/min/mg 1 μM [2] | IC50 (rat GnRH receptor) | IC50 (human GnRH receptor) | Structure (SMILES) | also measured
9 | 655 pmol/min/mg | 13 nM | 3334 pmol/min/mg | 8 nM | 80 nM | Cc1cc2c(cc1Cc1ccc(C(=O)NCc3cccc(CNc4nccc(N5CCOCC5)n4)c3)o1)C(C)(C)CCC2(C)C [Compound 150] | 
10 | 225 pmol/min/mg | 5.2 nM | 3043 pmol/min/mg | 7.2 nM | 65 nM | Cc1cc2c(cc1Cc1ccc(C(=O)NCc3cccc(CNc4ncc(C)c(NCC5CCCO5)n4)c3)o1)C(C)(C)CCC2(C)C (stereo not shown) [Compound 151] | 
11 | 241 pmol/min/mg | 36 nM | 4481 pmol/min/mg | 22 nM | 150 nM | COCCNc1nccc(NCc2cccc(CNC(=O)c3ccc(Cc4cc5c(cc4C)C(C)(C)CCC5(C)C)o3)c2)n1 [Compound 154] | 
12 | 867 pmol/min/mg | 400 nM | 2995 pmol/min/mg | 270 nM | 24 nM | Cc1cc2c(cc1Cc1ccc(C(=O)NC[C@H]3CC[C@H](C(N)=O)CC3)o1)C(C)(C)CCC2(C)C [Compound 156] | 
13 | 793 pmol/min/mg | 16 nM | 6642 pmol/min/mg | 5 nM | 45 nM | COc1cc(CO)cc(OC)c1NC(=O)c1ccc(Cc2cc3c(cc2C)C(C)(C)CCC3(C)C)o1 [Compound 159] | 
14 | 407 pmol/min/mg | 130 nM | 1087 pmol/min/mg | 130 nM | 230 nM | COc1cc(OC)c(NC(=O)c2ccc(Cc3c(C)cc(C)cc3C)o2)c(OC)c1 [Compound 168] | half-life ([4]; male, iv, 10 mg/kg, rat male): 1.8 h; Cmax [4, 6]: 300 nM; Tmax [4, 6]: 1 h; Fp.o. ([4]; rat male, p.o. 20 mg/kg, vehicle per footnote (DMSO/cremophor/saline)): 1% (20 mg/kg)^6
15 | 273 pmol/min/mg | 4 nM | 2341 pmol/min/mg | 3 nM |  | Cc1cc2c(cc1Cc1ccc(C(=O)NCc3cccc(CNc4ccnc(NC[C@@H]5CCCO5)n4)c3)o1)C(C)(C)CCC2(C)C [Compound 176] | T1/2 ([4]; rat male): 2.8 h
16 | 1124 pmol/min/mg |  |  |  | 350 nM | COc1cc(OC)c(NC(=O)c2ccc(Cc3cc(C)cc4c3OCCC4(C)C)o2)c(OC)c1 [Compound 190.5] | 

From patent publication US7101878B1 (Agouron Pharmaceuticals, Inc., priority 1998, dated 2006)
